Measurements: US9701662B2, “Herbicidal compounds” (Syngenta Participations AG, priority 2014, dated 2017)

How the values were obtained:
Assay type in all cases: in vivo
[1] = tested on: Amaranthus retoflexus (AMARE); assay: Post-emergence glasshouse herbicide test; conditions: post-emergence (sprayed after 8 days cultivation), 1000 g/h, evaluated after 13 days, five point scale
Method: (§1) Seeds of a variety of test species are sown in standard soil in pots (Lolium perenne (LOLPE), Solanum nigrum (SOLNI), Amaranthus retoflexus (AMARE), Setaria faberi (SETFA), Echinochloa crus-galli (ECHCG), Ipomoea hederacea (IPOHE)). After cultivation for one day (pre-emergence) or after 8 days cultivation (post-emergence) under controlled conditions in a glasshouse (at 24/16° C., day/night; 14 hours light; 65% humidity), the plants are sprayed with an aqueous spray solution derived from the formulation of the technical active ingredient in acetone/water (50:50) solution containing 0.5% Tween 20 (polyoxyethelyene sorbitan monolaurate, CAS RN 9005-64-5). Compounds are applied at 1000 g/h. The test plants are then grown in a glasshouse under controlled conditions in a glasshouse (at 24/16° C., day/night; 14 hours light; 65% humidity) and watered twice daily. After 13 days for pre and post-emergence, the test is evaluated for the percentage damage caused to the plant. The biological activities are shown in the following table on a five point scale (5=80-100%; 4=60-79%; 3=40-59%; 2=20-39%; 1=0-19%).

[2] = tested on: Echinochloa crus-galli (ECHCG); assay: Post-emergence glasshouse herbicide test; conditions: post-emergence (sprayed after 8 days cultivation), 1000 g/h, evaluated after 13 days, five point scale
Method: as §1

[3] = tested on: Ipomoea hederacea (IPOHE); assay: Post-emergence glasshouse herbicide test; conditions: post-emergence (sprayed after 8 days cultivation), 1000 g/h, evaluated after 13 days, five point scale
Method: as §1

[4] = tested on: Lolium perenne (LOLPE); assay: Post-emergence glasshouse herbicide test; conditions: post-emergence (sprayed after 8 days cultivation), 1000 g/h, evaluated after 13 days, five point scale
Method: as §1

[5] = tested on: Setaria faberi (SETFA); assay: Post-emergence glasshouse herbicide test; conditions: post-emergence (sprayed after 8 days cultivation), 1000 g/h, evaluated after 13 days, five point scale
Method: as §1

[6] = tested on: Solanum nigrum (SOLNI); assay: Post-emergence glasshouse herbicide test; conditions: post-emergence (sprayed after 8 days cultivation), 1000 g/h, evaluated after 13 days, five point scale
Method: as §1

[7] = tested on: Amaranthus retoflexus (AMARE); assay: Pre-emergence glasshouse herbicide test; conditions: pre-emergence (sprayed after one day cultivation), 1000 g/h, evaluated after 13 days, five point scale
Method: as §1

[8] = tested on: Echinochloa crus-galli (ECHCG); assay: Pre-emergence glasshouse herbicide test; conditions: pre-emergence (sprayed after one day cultivation), 1000 g/h, evaluated after 13 days, five point scale
Method: as §1

[9] = tested on: Ipomoea hederacea (IPOHE); assay: Pre-emergence glasshouse herbicide test; conditions: pre-emergence (sprayed after one day cultivation), 1000 g/h, evaluated after 13 days, five point scale
Method: as §1

[10] = tested on: Lolium perenne (LOLPE); assay: Pre-emergence glasshouse herbicide test; conditions: pre-emergence (sprayed after one day cultivation), 1000 g/h, evaluated after 13 days, five point scale
Method: as §1

[11] = tested on: Setaria faberi (SETFA); assay: Pre-emergence glasshouse herbicide test; conditions: pre-emergence (sprayed after one day cultivation), 1000 g/h, evaluated after 13 days, five point scale
Method: as §1

[12] = tested on: Solanum nigrum (SOLNI); assay: Pre-emergence glasshouse herbicide test; conditions: pre-emergence (sprayed after one day cultivation), 1000 g/h, evaluated after 13 days, five point scale
Method: as §1

Compound | percentage damage caused to the plant, AMARE, POST Application [1] | percentage damage caused to the plant, ECHCG, POST Application [2] | percentage damage caused to the plant, IPOHE, POST Application [3] | percentage damage caused to the plant, LOLPE, POST Application [4] | percentage damage caused to the plant, SETFA, POST Application [5] | percentage damage caused to the plant, SOLNI, POST Application [6] | percentage damage caused to the plant, AMARE, PRE Application [7] | percentage damage caused to the plant, ECHCG, PRE Application [8] | percentage damage caused to the plant, IPOHE, PRE Application [9] | percentage damage caused to the plant, LOLPE, PRE Application [10] | percentage damage caused to the plant, SETFA, PRE Application [11] | percentage damage caused to the plant, SOLNI, PRE Application [12]
Cn1nnnc1NC(=O)c1nn(C)c(=O)c(-c2ccc(Cl)c(Cl)c2)c1Cl [Compound 1.019] | 3 (3=40-59%) | 5 (5=80-100%) | 4 (4=60-79%) | 5 (5=80-100%) | 5 (5=80-100%) | 5 (5=80-100%) | 5 (5=80-100%) | 5 (5=80-100%) | 3 (3=40-59%) | 5 (5=80-100%) | 5 (5=80-100%) | 5 (5=80-100%)
Cc1ccc(C)c(-c2c(Cl)c(C(=O)Nc3nnnn3C)nn(C)c2=O)c1 [Compound 1.020] | 5 (5=80-100%) | 5 (5=80-100%) | 5 (5=80-100%) | 5 (5=80-100%) | 5 (5=80-100%) | 5 (5=80-100%) | 5 (5=80-100%) | 5 (5=80-100%) | 5 (5=80-100%) | 5 (5=80-100%) | 5 (5=80-100%) | 5 (5=80-100%)
Cn1nnnc1NC(=O)c1nn(C)c(=O)c(-c2ccc(C(F)(F)F)cc2)c1Cl [Compound 1.023] | 2 (2=20-39%) | 5 (5=80-100%) | 2 (2=20-39%) | 5 (5=80-100%) | 5 (5=80-100%) | 5 (5=80-100%) | 4 (4=60-79%) | 5 (5=80-100%) | 2 (2=20-39%) | 5 (5=80-100%) | 5 (5=80-100%) | 5 (5=80-100%)
Cn1nnnc1NC(=O)c1nn(C)c(=O)c(-c2cccc(C(F)(F)F)c2)c1Cl [Compound 1.030] | 5 (5=80-100%) | 5 (5=80-100%) | 4 (4=60-79%) | 5 (5=80-100%) | 5 (5=80-100%) | 5 (5=80-100%) | 5 (5=80-100%) | 5 (5=80-100%) | 2 (2=20-39%) | 5 (5=80-100%) | 5 (5=80-100%) | 5 (5=80-100%)
CCOc1c(C(=O)Nc2nnnn2C)nn(C)c(=O)c1-c1ccccc1 [Compound 1.031] | 5 (5=80-100%) | 5 (5=80-100%) | 5 (5=80-100%) | 4 (4=60-79%) | 5 (5=80-100%) | 5 (5=80-100%) | 5 (5=80-100%) | 5 (5=80-100%) | 5 (5=80-100%) | 3 (3=40-59%) | 5 (5=80-100%) | 5 (5=80-100%)
CCOc1c(C(=O)Nc2nnnn2C)nn(C)c(=O)c1-c1ccc(Cl)c(Cl)c1 [Compound 1.032] | 5 (5=80-100%) | 5 (5=80-100%) | 4 (4=60-79%) | 4 (4=60-79%) | 5 (5=80-100%) | 5 (5=80-100%) | 5 (5=80-100%) | 5 (5=80-100%) | 4 (4=60-79%) | 4 (4=60-79%) | 5 (5=80-100%) | 5 (5=80-100%)
COc1cccc(-c2c(Cl)c(C(=O)Nc3nnnn3C)nn(C)c2=O)c1 [Compound 1.036] | 5 (5=80-100%) | 5 (5=80-100%) | 4 (4=60-79%) | 5 (5=80-100%) | 5 (5=80-100%) | 5 (5=80-100%) | 5 (5=80-100%) | 5 (5=80-100%) | 2 (2=20-39%) | 5 (5=80-100%) | 5 (5=80-100%) | 5 (5=80-100%)
Cn1nnnc1NC(=O)c1nn(C)c(=O)c(-c2ccccc2C(F)(F)F)c1Cl [Compound 1.037] | 5 (5=80-100%) | 5 (5=80-100%) | 5 (5=80-100%) | 5 (5=80-100%) | 5 (5=80-100%) | 5 (5=80-100%) | 5 (5=80-100%) | 5 (5=80-100%) | 5 (5=80-100%) | 5 (5=80-100%) | 5 (5=80-100%) | 5 (5=80-100%)
